Results: patent US11389449B2, “Treatment of metabolic syndrome with an sGC stimulator” (Cyclerion Therapeutics, Inc., priority 2017, dated 2022)
“Also recorded” adds a separate entry of the source.

How the values were obtained:
[1] = tested on: obese/high fat diet C57Bl/6J mice; test: DIO mouse model: fasting plasma biomarkers and liver triglycerides; assay type: in vivo; settings: DIO HFD mice, approx 6 mg/kg in diet
Description: The objective of this animal study was to evaluate the effects of Compound I in the mouse diet induced obesity (DIO) model. Assessments included body weight, food intake, oral glucose tolerance test (OGTT) and fasting plasma biomarkers of metabolic control.
Male C57Bl/6J mice with baseline body weights of 25.0-29.0 grams (lean controls) and 31.5-45.0 grams (obese/high fat diet treated) respectively, were used for this study. The lean mice (n=8) were maintained on a standard chow diet. The obese mice were given 60% high fat diet (HFD) starting at 6 weeks of age. All animals were allowed free access to drinking water and chow. The study was begun when the mice were 12 weeks of age and concluded after 4 weeks (16 weeks of age). The obese control group (n=8 mice) was maintained on HFD. The Compound I group (n=8 obese mice) was treated with HFD containing 90 mg Compound I/kg (an approximate dose of 6 mg/kg). Body weights were determined twice weekly and food intake was measured daily for 28 days. An OGTT was performed on each animal at day 28 or 29 and the animals were sacrificed on the following day. On the terminal day, 3 hour fasted blood was collected for compound concentrations and plasma biomarkers analysis including glucose, insulin and triglycerides. Organs were collected, weighed and snap frozen in liquid nitrogen for further analysis.

[2] = tested on: patients with stable type 2 diabetes and hypertension; test: Randomized placebo-controlled Phase 2a study of 2 dose regimens (NCT03091920), metabolic assessments; assay type: in vivo, human; settings: for Apolipoprotein B Change LS Mean / Apolipoprotein B LS Mean Diff (placebo adjusted): serum; for serum triglycerides LS Mean Diff (placebo adjusted) / serum triglycerides LS Mean reduction from baseline: Day 15
Method: The serum ApoB level was determined using microsphere-based HSP-ApoB assay, consisting of using antigen-specific antibodies optimized in a capture-sandwich format. 5 μL of a diluted mixture of capture-antibody microspheres were mixed with 5 μL bloker and 10 μL standard, pre-diluted sample, or control in a hard-bottom microtiter plate. Plama and serum samples were diluted of the appropriate dilution. The plate was incubated for 1 hour at room temperature. 10 μL biotinylated detection antibody was added to each well, thoroughly-mixed and incubated for 1 hour. 10 μL diluted Streptavidin-phycoerythrin was added to each well, thoroughly mixed, and incubated for 60 minutes. A filter-membrane microtiter plate was pre-wetted by adding 100 μL wash buffer followed by aspiration via a vaccum manifoled device. The reaction contents of the hard-bottom plate were then transferred to the respective wells of the filter plate. All wells were vacuum aspirated and the contents were washed twice with 100 μL wash buffer. After the last wash, 100 μL wash buffer was added to each well, and the washed microspheres were resuspended with thorough mixing. The plate was then analyzed on the Luminex platform.
Plasma ADMA concentrations were determined by liquid chromatography and tandem mass spectrometry (LC-MS/MS). Plasma samples of the patients were collected in a purple-top container with K2 EDTA anticoagulant. The tube was filled completely and the sample was mixed well and separated by centrifugation. A minium volume of 0.20 mL was needed for testing and the plasma sample was extracted by a simple protein precipation. The supernatant was then transferred to a diluent before analysis. The extract was analyzed using liquid chromatography (LC) with tandem mass spectrometry (MS/MS). The standard curve was 10.0 ng/mL to 1000.0 ng/mL.
The primary objectives of this clinical study (ClinicalTrials.gov Identifier: NCT03091920) were to compare the safety, tolerability, PK profile, and PD effects of 2 treatment regimens of Compound I tablet (40 mg per day, as 20 mg BID or as 40 mg QD) administered orally for 2 weeks to patients with stable type 2 diabetes mellitus and hypertension. Patients in this trial were on stable medications for glucose control (blood glucose lowering medication, antihyperglycemics) and hypertension (antihypertensives). Secondary measurements included assessment of fasting glucose levels, fasting insulin levels, hemoglobin A1C (HbA1C) levels, serum cholesterol levels, ApoB levels, HOMA-IR, ADMA concentrations, serum triglyceride levels, BMI, liver transaminases and body weight, among others.
Allocation: Randomized; Intervention Model: Parallel Assignment; Masking: Triple (Participant, Care Provider, Investigator); Masking Description: Double-Blind; Primary Purpose: Treatment
This is a randomized, double-blind, placebo-controlled study consisting of 3 distinct periods (see FIG. 30).
13 male patients and 13 female patientes with stable type 2 diabetes and hypertension were enrolled. Patients were randomized in a 5:5:3 ratio (QD:BID:Placebo) to receive 1 of 2 Compound I treatment regimens or placebo (all regimens were masked) as outlined in the table above.
Clinic Period: The Clinic Period began at Check-in on Day-2 (2 days before dosing) and ended at the time of Discharge on Day 15. During the 17-day Clinic Period, patients were confined to the Study Center and received a standard diet for diabetics. Patients who met eligibility criteria based on Screening Visit assessments were admitted to the Study Center on Day-2 for baseline procedures. On the morning of Day 1 (there is no Day 0), eligible patients were randomized in a 5:5:3 ratio to 1 of 3 masked treatment regimens: QD/QD, BID/QD, or PBO/PBO. On Days 1 to 14, patients received a morning (AM) dose and an evening (PM) dose.
Compound I was administered as multiples of a 5 mg oral tablet dosage form. Placebo was administered as multiples of a 5 mg tablet. […]

[3] = 40 mg, regimens combined, 14 days
[4] = subgroup of 18 patients on concomitant statin therapy, regimens combined, 14 days

OC(CNc1nc(-c2cc(-c3ccon3)n(Cc3ccccc3F)n2)ncc1F)(C(F)(F)F)C(F)(F)F [Compound I]
Fasting plasma glucose ([1]; after 4 weeks): unchanged
plasma insulin change vs obese controls ([1]; after 4 weeks, P<0.01): −53%
plasma triglycerides change vs obese controls ([1]; after 4 weeks, P<0.01): −30%
circulating and liver triglycerides ([1]; compared to obese controls): lowered
HDL cholesterol levels ([2]; 40 mg total daily dose, over the trial): remained unchanged; also recorded: remained closed to baseline; also recorded: no changes
mean serum ALT decrease from baseline [2, 3]: 4.9 IU/L
mean serum AST decrease from baseline [2, 3]: 4.5 IU/L
mean serum GGT decrease from baseline [2, 3]: 2.4 U/L
Mean Apo-B levels decline in treated patients ([2]; 14 days): approximately 17%
HbA1C levels over placebo ([2]; 14 days of treatment): No meaningful improvements
plasma fasting glucose LS Mean reduction from baseline ([2]; BID/QD (20 mg BID days 1-7; 40 mg QD days 8 to 14), day 15): -35.3 mg/dL
Apolipoprotein B Change LS Mean ([2]; BID/QD (N = 10), day 15): -219.4 µg/mL
serum triglycerides LS Mean Diff (placebo adjusted) ([2]; BID/QD): -14.3 mg/dL
serum triglycerides LS Mean reduction from baseline ([2]; BID/QD): -46.4 mg/dL
LDL cholesterol Mean Diff (SE), placebo adjusted ([2]; BID/QD, day 15): −20.2 (9.2) mg/dL
LDL cholesterol Mean reduction from baseline (SE), least square ([2]; BID/QD, day 15): −14.0 (5.6) mg/dL
plasma fasting glucose LS Mean Diff (placebo adjusted) ([2]; BID/QD, day 15): -15.6 mg/dL
serum cholesterol LS Mean Diff (placebo adjusted) ([2]; BID/QD, day 15): -20.9 mg/dL
serum cholesterol LS Mean reduction from baseline ([2]; BID/QD, day 15): -20.2 mg/dL
serum LDL cholesterol reduced when compared to placebo ([2]; BID/QD, day 15, after 14 days of treatment): about 20 mg/dL
serum LDL cholesterol reduced when compared to placebo ([2]; BID/QD, day 15, % of total cholesterol): 13%
Apolipoprotein B LS Mean Diff (placebo adjusted) ([2]; BID/QD, day 15): -168.9 µg/mL
plasma fasting glucose LS Mean reduction from baseline ([2]; Combined group (BID/QD and QD/QD), day 15): -32.5 mg/dL
serum triglycerides LS Mean Diff (placebo adjusted) ([2]; Combined group): -14.2 mg/dL
serum triglycerides LS Mean reduction from baseline ([2]; Combined group): -46.2 mg/dL
LDL cholesterol Mean Diff (SE), placebo adjusted ([2]; Combined group, day 15): −20.2 (8.3) mg/dL
LDL cholesterol Mean reduction from baseline (SE), least square ([2]; Combined group, day 15): −13.9 (4.0) mg/dL
plasma fasting glucose LS Mean Diff (placebo adjusted) ([2]; Combined group, day 15): -12.8 mg/dL
serum cholesterol LS Mean Diff (placebo adjusted) ([2]; Combined group, day 15): -25.5 mg/dL
serum cholesterol LS Mean reduction from baseline ([2]; Combined group, day 15): -24.7 mg/dL
Apolipoprotein B Change LS Mean ([2]; Overall 40 mg Total Daily Dose (N = 20), day 15): -169.5 µg/mL
plasma fasting glucose LS Mean reduction from baseline ([2]; QD/QD (40 mg QD days 1 to 14), day 15): -29.6 mg/dL
Apolipoprotein B Change LS Mean ([2]; QD/QD (N = 10), day 15): -119.6 µg/mL
serum triglycerides LS Mean Diff (placebo adjusted) ([2]; QD/QD): -14.0 mg/dL
serum triglycerides LS Mean reduction from baseline ([2]; QD/QD): -46.0 mg/dL
LDL cholesterol Mean Diff (SE), placebo adjusted ([2]; QD/QD, day 15): −19.9 (9.2) mg/dL
LDL cholesterol Mean reduction from baseline (SE), least square ([2]; QD/QD, day 15): −13.7 (5.6) mg/dL
plasma fasting glucose LS Mean Diff (placebo adjusted) ([2]; QD/QD, day 15): -10.0 mg/dL
serum cholesterol LS Mean Diff (placebo adjusted) ([2]; QD/QD, day 15): -30.1 mg/dL
serum cholesterol LS Mean reduction from baseline ([2]; QD/QD, day 15): -29.3 mg/dL
serum LDL cholesterol reduced when compared to placebo ([2]; QD/QD, day 15, after 14 days of treatment): about 20 mg/dL
serum LDL cholesterol reduced when compared to placebo ([2]; QD/QD, day 15, % of total cholesterol): 13%
Apolipoprotein B LS Mean Diff (placebo adjusted) ([2]; QD/QD, day 15): -69.1 µg/mL
fasting plasma insulin levels over placebo ([2]; all of 26 patients, including those on insulin therapy): no meaningful improvements
ADMA plasma concentration decrease from baseline ([2]; combined Compound I group, 14 day study, baseline of 105 ng/ml): 8.7 ng/mL
ADMA plasma concentration mean reduction adjusted to placebo ([2]; combined group, after 14 days of treatment): about 11 ng/mL
serum ALT change compared to baseline ([2]; over 14 days): −4.9 IU/L
serum ALT reduction compared to baseline ([2]; over 14 days): 20%
serum AST change compared to baseline ([2]; over 14 days): −4.5 IU/L
serum AST reduction compared to baseline ([2]; over 14 days): 20%
weight or BMI, adjusted to placebo ([2]; over the 14 days of treatment): No meaningful changes
fasting plasma insulin change adjusted to placebo ([2]; patients not on insulin): -13 pmol/L
reduction in HOMA-IR from baseline ([2]; patients not taking concomitant insulin (12 on Compound I), 14 days): 36%
reduction in HOMA-IR adjusted to placebo ([2]; patients not taking concomitant insulin, 14 days): 23%
apolipoprotein B decline, Compound I vs. PBO-treated patients ([2]; post-hoc analysis, 14 days): -119 µg/mL
LDL cholesterol decrease in treated vs. placebo patients [2, 4]: -16 mg/dL
total cholesterol decrease in treated vs. placebo patients [2, 4]: -17 mg/dL
mean decrease of plasma blood glucose relative to placebo ([2]; subgroup using only oral antihyperglycemic agents without insulin, regimens combined, 14 days): -19 mg/dL
